SMILES strings stand for the structures.

Series [1] addresses T1, EGFR (Epidermal Growth Factor Receptor) (Homo sapiens, UniProt P00533).
T1 construct: purchased CST
In words: Enzyme-linked immunosorbent assay (ELISA), kinase inhibitory activity (phosphorylation of PTP1B(Tyr66) biotinylated peptide substrate). Format: biochemical. The note with it: average of two independent parallel experiments. The source says: Protein kinase assay kit: PTP1B(Tyr66) Biotinylated Peptide from CST company is used as a substrate of kinase EGFR (Epidermal Growth Factor Receptor).

Series [2] in a line: Stability (physicochemical properties, Table 1). The conditions noted are these: for Stability (photostability): light.
Series [3] in a line: Solubility (physicochemical properties, Table 1). The conditions noted are these: room temperature, atmospheric pressure.

T1 sequence (P00533 25-1210): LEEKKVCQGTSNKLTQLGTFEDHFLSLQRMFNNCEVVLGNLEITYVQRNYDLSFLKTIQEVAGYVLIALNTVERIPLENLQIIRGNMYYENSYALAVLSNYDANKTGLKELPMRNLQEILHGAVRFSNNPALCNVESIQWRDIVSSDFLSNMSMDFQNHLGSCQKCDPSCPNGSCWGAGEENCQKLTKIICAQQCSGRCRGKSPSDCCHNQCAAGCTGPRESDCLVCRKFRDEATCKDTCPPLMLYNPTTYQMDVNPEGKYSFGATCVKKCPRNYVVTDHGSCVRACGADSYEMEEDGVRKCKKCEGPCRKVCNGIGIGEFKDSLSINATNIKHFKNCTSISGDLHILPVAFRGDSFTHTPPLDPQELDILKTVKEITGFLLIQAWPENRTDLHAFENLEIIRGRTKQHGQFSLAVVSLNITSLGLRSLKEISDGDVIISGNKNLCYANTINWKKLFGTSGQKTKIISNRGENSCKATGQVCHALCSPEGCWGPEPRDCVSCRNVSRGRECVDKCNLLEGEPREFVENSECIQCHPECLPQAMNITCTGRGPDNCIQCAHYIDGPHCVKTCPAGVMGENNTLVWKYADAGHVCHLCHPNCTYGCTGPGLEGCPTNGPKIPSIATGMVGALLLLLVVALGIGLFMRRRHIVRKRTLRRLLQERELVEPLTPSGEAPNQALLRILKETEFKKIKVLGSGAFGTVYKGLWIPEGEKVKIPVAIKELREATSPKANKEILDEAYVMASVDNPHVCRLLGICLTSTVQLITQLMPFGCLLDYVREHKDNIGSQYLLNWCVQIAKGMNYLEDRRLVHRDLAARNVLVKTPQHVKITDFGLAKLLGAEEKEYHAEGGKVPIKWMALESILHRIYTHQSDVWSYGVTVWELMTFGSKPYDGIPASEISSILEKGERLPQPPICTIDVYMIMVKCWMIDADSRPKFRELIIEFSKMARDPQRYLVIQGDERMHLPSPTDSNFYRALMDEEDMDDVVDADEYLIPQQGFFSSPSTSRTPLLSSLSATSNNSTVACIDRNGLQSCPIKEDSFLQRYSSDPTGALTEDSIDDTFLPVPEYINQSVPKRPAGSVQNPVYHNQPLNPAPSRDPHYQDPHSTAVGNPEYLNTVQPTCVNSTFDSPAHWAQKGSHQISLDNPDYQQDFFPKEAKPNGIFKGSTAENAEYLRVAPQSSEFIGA

Take `COc1cc2ncnc(Nc3ccc(F)c(Cl)c3)c2cc1OCC[N]1CC[NH][Ru]1([Cl])([Cl])([Cl])[SH](C)(C)=O` [JLY2007]: half-maximal inhibition in series [1] (IC50) required 7.5 nM. In series [2], the “Stability (in air)” value is recorded as “Stable in air,” and the “Stability (photostability)” value was “photostable”. Besides, in series [3], the “Solubility in DMSO” value is “Highly soluble in DMSO”; the “Solubility in methanol and ethanol” value is on record as “soluble in water, soluble in methanol”; the Solubility in water entry was “slightly”.

On to `COc1cc2ncnc(Nc3ccc(F)c(Cl)c3)c2cc1OCCBr` [ZW1001-M, 4-(3′-chloro-4′-fluoro-phenylamino)-6-(2-bromo-ethoxy)-7-methoxy quinazoline], for which the IC50 (commonly the concentration at which inhibition is half-maximal) in series [1] was 18 nM. Further, in series [2], the “Stability (in air)” value is given as “Stable in air,” and the “Stability (photostability)” value was “photostable”. In series [3], the “Solubility in DMSO” value is “Highly soluble in DMSO”; the “Solubility in methanol and ethanol” value is “soluble in water, soluble in methanol”; the Solubility in water result was “slightly”.

Take `COc1cc2ncnc(Nc3ccc(F)c(Cl)c3)c2cc1OCC[NH+]1CC[NH2+][Pt-2]1([Cl])[Cl]` (stereo not drawn) [ZY-1]: the half-maximal inhibitory concentration (IC50) in series [1] is 2.8 nM. For the same compound, in series [2], the “Stability (in air)” value is “Stable in air,” and the “Stability (photostability)” value is “photostable”. Further, in series [3], the “Solubility in DMSO” value was “Highly soluble in DMSO”; the “Solubility in methanol and ethanol” value was “soluble in water, soluble in methanol”; the Solubility in water result is recorded as “slightly”.

In turn, `COc1cc2ncnc(Nc3ccc(F)c(Cl)c3)c2cc1OCCC[NH+]1CC[NH2+][Pt-2]1([Cl])[Cl]` (stereo not drawn) [ZY-2] displayed an IC50 in series [1] of 17 nM. Also, in series [2], the “Stability (in air)” value was “Stable in air,” and the “Stability (photostability)” value was “photostable”. In series [3], the “Solubility in DMSO” value is “Highly soluble in DMSO”; the “Solubility in methanol and ethanol” value was “soluble in water, soluble in methanol”; the Solubility in water entry is reported as “slightly”.
